{
  "source": "patent US10202415B1",
  "about": "“Method of synthesizing of 3-oxolupenal nanoparticles” (KING SAUD UNIVERSITY, priority 2017, dated 2019)",
  "assay_in_all_cases": "Antimicrobial activity, agar diffusion technique",
  "type_in_all_cases": "cell-based",
  "key": {"[1]": {"tested_on": "Staphylococcus aureus (RCMB 010027)"}, "[2]": {"tested_on": "Staphylococcus epidermidis (RCMB 010024)"}, "[3]": {"tested_on": "Streptococcus pyogenes (RCMB 010015)"}, "[4]": {"tested_on": "Salmonella enteritidis(RCMB 010084)"}, "[5]": {"tested_on": "Proteous vulgaris (RCMB 010085)"}, "[6]": {"tested_on": "Klebsiella pneumoniae (RCMB 0010093)"}, "[7]": {"tested_on": "Geotricum candidum (RCMB 05097)"}, "[8]": {"tested_on": "Absidia corymbifera (RCMB 02564)"}, "[9]": {"tested_on": "Candida albicans (RCMB 05036)"}},
  "data": [
    {"compound": "CC1(C)S[C@@H]2[C@H](NC(=O)[C@H](N)c3ccccc3)C(=O)N2[C@H]1C(=O)O", "note": "[Ampicillin]", "values": [
      {"measurement": "Zone of Inhibition (±S.D.)", "setting": "[1]", "value": "27.3 ± 0.14"},
      {"measurement": "Zone of Inhibition (±S.D.)", "setting": "[2]", "value": "25.0 ± 0.18"},
      {"measurement": "Zone of Inhibition (±S.D.)", "setting": "[3]", "value": "26.3 ± 0.34"}
    ]},
    {"compound": "Gentamycin", "values": [
      {"measurement": "Zone of Inhibition (±S.D.)", "setting": "[4]", "value": "25.2 ± 0.18"},
      {"measurement": "Zone of Inhibition (±S.D.)", "setting": "[5]", "value": "23.4 ± 0.30"},
      {"measurement": "Zone of Inhibition (±S.D.)", "setting": "[6]", "value": "26.4 ± 0.15"}
    ]},
    {"compound": "C[C@@H]1[C@H](O)[C@@H](C)/C=C/C=C/C=C/C=C/C=C/C=C/C=C/[C@H](O[C@@H]2O[C@H](C)[C@@H](O)[C@H](N)[C@@H]2O)C[C@@H]2O[C@](O)(C[C@@H](O)C[C@@H](O)[C@H](O)CC[C@@H](O)C[C@@H](O)CC(=O)O[C@H]1C)C[C@H](O)[C@H]2C(=O)O", "note": "[Amphotericin B]", "values": [
      {"measurement": "Zone of Inhibition (±S.D.)", "setting": "[7]", "value": "27.0 ± 0.20"},
      {"measurement": "Zone of Inhibition (±S.D.)", "setting": "[8]", "value": "23.0 ± 0.10"},
      {"measurement": "Zone of Inhibition (±S.D.)", "setting": "[9]", "value": "25.7 ± 0.10"}
    ]}
  ]
}
